Results on eleven compounds are retold here after ChEMBL document CHEMBL4359894, “Novel class of 7-Oxabicyclo[2.2.1]heptene sulfonamides with long alkyl chains displaying improved estrogen receptor α degradation activity” (Eur J Med Chem, 2019).

Each structure is given as a SMILES string. Active and inactive are the calls of the source. No cut-off for these calls is given here. Where a SMILES comes first, the peptide text is derived from it. The star is where a group is joined. Cbz = O=C(OCc1ccccc1)*

One series concerns MCF-10A. The experiment in a line: Cytotoxicity against human MCF10A cell incubated for 72 hrs by MTT assay. The format is cell-based.
Series [1] has as its target T1, Estrogen receptor (Homo sapiens) (UniProt P03372).
T1 sequence (whole entry): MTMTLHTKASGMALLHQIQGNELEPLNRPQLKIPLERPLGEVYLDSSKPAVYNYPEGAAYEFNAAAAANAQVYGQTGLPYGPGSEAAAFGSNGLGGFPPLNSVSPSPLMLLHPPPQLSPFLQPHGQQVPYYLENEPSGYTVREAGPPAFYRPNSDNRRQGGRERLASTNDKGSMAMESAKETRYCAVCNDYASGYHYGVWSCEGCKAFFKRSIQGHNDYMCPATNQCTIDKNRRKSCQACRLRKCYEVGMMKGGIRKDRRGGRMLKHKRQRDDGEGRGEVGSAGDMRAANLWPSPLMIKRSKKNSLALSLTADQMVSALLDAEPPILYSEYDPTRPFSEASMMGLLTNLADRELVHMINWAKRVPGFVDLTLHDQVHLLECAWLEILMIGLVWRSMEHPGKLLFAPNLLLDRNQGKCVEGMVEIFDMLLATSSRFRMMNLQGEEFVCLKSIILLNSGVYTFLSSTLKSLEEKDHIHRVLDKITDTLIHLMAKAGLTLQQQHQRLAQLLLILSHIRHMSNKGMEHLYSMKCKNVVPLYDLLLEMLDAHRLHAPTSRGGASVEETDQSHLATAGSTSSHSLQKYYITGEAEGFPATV
The experiment in a line: Induction of ERalpha degradation in human MCF7 cells assessed as decrease in ERalpha protein expression at 5 uM incubated for 24 hrs by Western blot analysis relative to control. The format is cell-based. Further details: scale not given: the % may be the effect or the level left. (In general: Immunoblotting shows a protein as a band on a membrane.)

A short description of series [2]: Therapeutic index, ratio of IC50 for cytotoxicity against human MCF10A cells to IC50 for antiproliferative activity against human MCF7 cells. The format is toxicity, cell-based. As to conditions: read-out: Ratio IC50.
The subject of a further series is MCF7. Nature of the series: Antiproliferative activity against human MCF7 cell incubated for 72 hrs by MTT assay. The format is functional, cell-based. Particulars: MCF7, 72 h. A general note: Tetrazolium dyes change colour on reduction, which living cells bring about.
Series [3] deals with Estrogen receptor beta (Homo sapiens) (UniProt Q92731). The experiment in a line: Binding affinity to ERbeta (unknown origin) by competitive fluorometric receptor binding assay relative to estradiol.
Series [4] concerns the target T1, Estrogen receptor (Homo sapiens). The experiment in a line: Binding affinity to ERalpha (unknown origin) by competitive fluorometric receptor binding assay relative to estradiol.
The target is the same in series [5]. The experiment in a line: Induction of ERalpha degradation in human MCF7 cells assessed as decrease in ERalpha protein expression at 10 uM incubated for 24 hrs by Western blot analysis. The format is cell-based.
For series [6] the target is unchanged. Nature of the series: Induction of ERalpha degradation in human MCF7 cells assessed as decrease in ERalpha protein expression at 0.1 to 10 uM incubated for 24 hrs by Western blot analysis. The format is cell-based.
Series [7] has the same target. Nature of the series: Induction of ERalpha degradation in human MCF7 cells assessed as decrease in ERalpha protein expression at 1 uM incubated for 24 hrs by Western blot analysis relative to control. The format is cell-based.

Chain of Estrogen receptor beta (Homo sapiens) (Q92731 whole entry): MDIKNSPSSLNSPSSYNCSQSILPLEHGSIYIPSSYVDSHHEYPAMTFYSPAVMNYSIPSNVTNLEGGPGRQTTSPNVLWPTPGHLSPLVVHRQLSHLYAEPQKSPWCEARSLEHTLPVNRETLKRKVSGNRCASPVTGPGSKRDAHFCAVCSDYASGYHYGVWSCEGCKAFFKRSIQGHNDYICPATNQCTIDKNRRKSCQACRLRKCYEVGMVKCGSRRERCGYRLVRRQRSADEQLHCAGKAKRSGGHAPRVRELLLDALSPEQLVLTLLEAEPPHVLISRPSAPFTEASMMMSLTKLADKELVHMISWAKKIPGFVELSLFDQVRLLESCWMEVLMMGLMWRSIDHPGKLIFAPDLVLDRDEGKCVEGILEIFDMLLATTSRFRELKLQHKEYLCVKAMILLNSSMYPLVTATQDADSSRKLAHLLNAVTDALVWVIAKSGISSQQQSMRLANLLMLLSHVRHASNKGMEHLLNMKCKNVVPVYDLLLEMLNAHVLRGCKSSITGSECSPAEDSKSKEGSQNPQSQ

The term IC50 denotes the midpoint of a concentration-inhibition curve. `CCCCCCOc1ccc(C2=C(c3ccc(O)cc3)[C@H]3O[C@@H]2C[C@@H]3S(=O)(=O)N(CC(F)(F)F)c2ccc(OC)cc2)cc1`: the IC50 with MCF-10A is 42.4 µM; with MCF7, 0.84 µM. Besides, the Activity in [1] came out at 100%. Also, the selectivity ratio in [2] stood at 50.4. Moreover, the relative binding affinity (RBA) stood at 0.08 in series [3] and 4.43 in series [4].

For `CC(C)C[C@@H](C=O)NC(=O)[C@H](CC(C)C)NC(=O)[C@H](CC(C)C)NC(=O)OCc1ccccc1` (Cbz-Leu-Leu-Leu-aldehyde), the outcome in series [5] was inactive.

Consider `CCCCCCOc1ccc(N(C)S(=O)(=O)[C@H]2C[C@H]3O[C@@H]2C(c2ccc(O)cc2)=C3c2ccc(O)cc2)cc1` (relative stereo), for which the figures for the IC50 in the series with MCF-10A and with MCF7 were 30.4 µM and 4.14 µM, respectively. Moreover, in [1], the result was Active. The selectivity ratio in series [2] stood at 7.3. For the same compound, the relative binding affinity (RBA) worked out at 0.12 in series [3] and 2.02 in series [4].

On to `CCCCCCCCOc1ccc(C2=C(c3ccc(O)cc3)[C@H]3O[C@@H]2C[C@@H]3S(=O)(=O)N(CC)c2ccccc2)cc1` (relative stereo), for which the IC50 was 34.6 µM with MCF-10A and 1.16 µM with MCF7. For the same compound, in series [2], the selectivity ratio was determined as 29.8. For the same compound, the relative binding affinity (RBA) stood at 0.05 in [3] and 1.03 in series [4].

With `COc1ccc(N(CC(F)(F)F)S(=O)(=O)[C@H]2C[C@H]3O[C@@H]2C(c2ccc(O)cc2)=C3c2ccc(O)cc2)cc1` (relative stereo), the outcome in series [6] and in series [7] was Active. For the same compound, the values for the IC50 in the series on MCF-10A and in the series on MCF7 were 41.7 µM and 9.84 µM, respectively. In addition, the selectivity ratio in series [2] is 4.2. Moreover, the results for the relative binding affinity (RBA) in series [3] and in series [4] were 0.07 and 0.74, respectively.

`CCCCOc1ccc(C2=C(c3ccc(O)cc3)[C@H]3C[C@H](S(=O)(=O)N(CC(F)(F)F)c4ccc(OC)cc4)[C@@H]2O3)cc1` (relative stereo): the IC50 in the series on MCF-10A is 69.7 µM; with MCF7, 3.02 µM. Also, the Activity in [1] turned out to be 100%. Besides, in series [2], the selectivity ratio was found to be 23.1. The results for the relative binding affinity (RBA) in [3] and in [4] were 0.85 and 2.11, respectively.

Regarding `CCCCCOc1ccc(C2=C(c3ccc(O)cc3)[C@H]3O[C@@H]2C[C@@H]3S(=O)(=O)N(CC(F)(F)F)c2ccc(OC)cc2)cc1` (relative stereo), the IC50 with MCF-10A was greater than 100 µM; with MCF7, 1.78 µM. Besides, in series [1], the Activity was 100%. Besides, in series [2], the selectivity ratio was greater than 56.1. Also, the relative binding affinity (RBA) in [3] was 0.24; in series [4], 1.53.

As for `CCCCCOc1ccc(C2=C(c3ccc(O)cc3)[C@H]3C[C@H](S(=O)(=O)N(CC(F)(F)F)c4ccc(OC)cc4)[C@@H]2O3)cc1` (relative stereo), the IC50 came to 97.3 µM with MCF-10A and 12.7 µM in the series with MCF7. In series [1], the Activity worked out at 100%. For the same compound, the selectivity ratio in [2] is 7.6. Besides, the relative binding affinity (RBA) in [3] turned out to be 0.04; in series [4], 4.29.

For the compound `CCCCCCOc1ccc(N(CC)S(=O)(=O)[C@H]2C[C@H]3O[C@@H]2C(c2ccc(O)cc2)=C3c2ccc(O)cc2)cc1` (relative stereo), the IC50 with MCF-10A came out at 36.5 µM; in the series on MCF7, 1.48 µM. Moreover, the outcome in series [1] was Active. Also, the selectivity ratio in [2] was 24.6. For the same compound, the values for the relative binding affinity (RBA) in [3] and in [4] were 0.14 and 2.29, respectively.

As for `CCCCOc1ccc(C2=C(c3ccc(O)cc3)[C@H]3O[C@@H]2C[C@@H]3S(=O)(=O)N(CC(F)(F)F)c2ccc(OC)cc2)cc1` (relative stereo), the IC50 came out at 78.3 µM with MCF-10A and 2.43 µM in the series with MCF7. Also, the Activity in series [1] was 100%. Further, in series [2], the selectivity ratio was 32.2. The relative binding affinity (RBA) in [3] is 0.27; in series [4], 1.81.

With `CCCCCCOc1ccc(C2=C(c3ccc(O)cc3)[C@H]3C[C@H](S(=O)(=O)N(CC(F)(F)F)c4ccc(OC)cc4)[C@@H]2O3)cc1` (relative stereo), the values for the IC50 in the series on MCF-10A and in the series on MCF7 were 39 µM and 1.15 µM, respectively. In addition, the Activity in series [1] was found to be 100%. Besides, the selectivity ratio in [2] was determined as 33.9. The relative binding affinity (RBA) in series [3] amounted to 0.01; in [4], 8.37.
